# Laboratory results published in patent EP0007672A1, “Isocyanoalkenes, process and useful intermediates for their preparation, pharmaceutical and fungicidal preparations containing those isocyanoalkenes and the use of the fungicidal preparations in agriculture” (GIST-BROCADES N.V., priority 1978, dated 1980).
# Where two headings read alike, the source gives them in different places.
# Legend:
# Assay in all cases: MIC (Minimum Inhibitory Concentration)
# Format in all cases: cell-based
# Bacillus subtilis = conditions: ATCC6633; Bacillus subtilis ATCC 6633
# Candida albicans = tested on: Candida albicans
# Diplococcus pneumoniae = conditions: Streptococcus pneumoniae; Diplococcus pneumoniae A 2783
# Pasteurella multocida = Pasteurella multocida A 723; read-out: MIC values
# Proteus morganii = conditions: Morganella morganii; Proteus morganii 2241
# Staphylococcus aureus = tested on: Staphylococcus aureus
# [1] = tested on: Streptococcus haemolyticus; conditions: Streptococcus haemolyticus A 1088; read-out: MIC values
# Trichophyton equinum = tested on: Trichophyton equinum
# [2] = tested on: Trichophyton mentagrophytus
# Trichophyton quickeaneum = Trichophyton quickeaneum A 2040; read-out: MIC values
# Trichophyton rubrum = tested on: Trichophyton rubrum
# [3] = tested on: Trichophyton schoenleinii; conditions: Trichophyton schoenleinii 435-63; read-out: MIC values
# [4] = tested on: Trichophyton soudanese joyeux; conditions: Trichophyton soudanese joyeux 440-63; read-out: MIC values
# Trichophyton tonsurans = Trichophyton tonsurans 561-50; read-out: MIC values
# Trichophyton verrucosum = tested on: Trichophyton verrucosum
# Trichophyton violoceum = Trichophyton violoceum 442-62; read-out: MIC values
# Fusarium (bulb) = Fusarium (bulb) A 3252
# Fusarium (tulip) = Fusarium (tulip) A 3253
# Fusarium solani = Fusarium solani A 3245; read-out: MIC values
# Rhizoctonia solani = Rhizoctonia solani 200-25; read-out: MIC values
# [5] = Candida albicans A 7, read-out: MIC values
# [6] = Candida albicans A 3140, read-out: MIC values
# [7] = Candida albicans A 3141, read-out: MIC values
# [8] = Candida albicans A 3142, read-out: MIC values
# [9] = Candida albicans A 3143, read-out: MIC values
# [10] = Candida albicans A 3144, read-out: MIC values
# [11] = Candida albicans A 3145, read-out: MIC values
# [12] = Candida albicans A 3165, read-out: MIC values
# [13] = Candida albicans A 3166, read-out: MIC values
# [14] = Candida albicans A 3167, read-out: MIC values
# [15] = Candida albicans A 3168, read-out: MIC values
# [16] = Candida albicans A 3169, read-out: MIC values
# [17] = Candida albicans A 3171, read-out: MIC values
# [18] = Candida albicans A 3184, read-out: MIC values
# [19] = Candida albicans A 3190, read-out: MIC values
# [20] = Candida albicans A 3191, read-out: MIC values
# [21] = Candida albicans A 3192, read-out: MIC values
# [22] = Candida albicans A 3194, read-out: MIC values
# [23] = Candida albicans A 3196, read-out: MIC values
# [24] = Trichophyton equinum 182-76, read-out: MIC values
# [25] = Trichophyton equinum 441-51, read-out: MIC values
# [26] = Trichophyton equinum 856-71, read-out: MIC values
# [27] = Trichophyton mentagrophytus 367-68, read-out: MIC values
# [28] = Trichophyton mentagrophytus 421-67, read-out: MIC values
# [29] = Trichophyton mentagrophytus A 3252, read-out: MIC values
# [30] = Trichophyton mentagrophytus R 177, read-out: MIC values
# [31] = Trichophyton mentagrophytus R 178, read-out: MIC values
# [32] = Trichophyton mentagrophytus RRL 305, read-out: MIC values
# [33] = Trichophyton rubrum 218-65, read-out: MIC values
# [34] = Trichophyton rubrum 494-62, read-out: MIC values
# [35] = Trichophyton rubrum A 810, read-out: MIC values
# [36] = Trichophyton verrucosum 134-66, read-out: MIC values
structure (smiles),measurement,setting,value
"[C-]#[N+]C(=CC(C)(C)C)S(=O)(=O)c1ccc(C)cc1 [Example 4, 3,3-dimethyl-1-isocyano-1-(4-toluenesulphonyl)-1-butene]",MIC,Bacillus subtilis,12.5 µg/mL
same,MIC,Candida albicans; [5],6 µg/mL
same,MIC,Candida albicans; [6],12.5 µg/mL
same,MIC,Candida albicans; [7],> 100 µg/mL
same,MIC,Candida albicans; [8],50 µg/mL
same,MIC,Candida albicans; [9],6 µg/mL
same,MIC,Candida albicans; [10],50 µg/mL
same,MIC,Candida albicans; [11],> 100 µg/mL
same,MIC,Candida albicans; [12],50 µg/mL
same,MIC,Candida albicans; [13],12.5 µg/mL
same,MIC,Candida albicans; [14],50 µg/mL
same,MIC,Candida albicans; [15],50 µg/mL
same,MIC,Candida albicans; [16],100 µg/mL
same,MIC,Candida albicans; [17],50 µg/mL
same,MIC,Candida albicans; [18],100 µg/mL
same,MIC,Candida albicans; [19],50 µg/mL
same,MIC,Candida albicans; [20],50 µg/mL
same,MIC,Candida albicans; [21],25 µg/mL
same,MIC,Candida albicans; [22],> 100 µg/mL
same,MIC,Candida albicans; [23],25 µg/mL
same,MIC,Diplococcus pneumoniae,6 µg/mL
same,MIC,Pasteurella multocida,3 µg/mL
same,MIC,Proteus morganii,100 µg/mL
same,MIC,Staphylococcus aureus; Staphylococcus aureus A 321,12.5 µg/mL
same,MIC,Staphylococcus aureus; Staphylococcus aureus A 355,6 µg/mL
same,MIC,Staphylococcus aureus; Staphylococcus aureus A 2000,6 µg/mL
same,MIC,[1],1.5 µg/mL
same,MIC,Trichophyton equinum; [24],3 µg/mL
same,MIC,Trichophyton equinum; [25],< 0.05 µg/mL
same,MIC,Trichophyton equinum; [26],0.2 µg/mL
same,MIC,[2]; [27],0.2 µg/mL
same,MIC,[2]; [28],0.8 µg/mL
same,MIC,[2]; [29],1.5 µg/mL
same,MIC,[2]; [30],6 µg/mL
same,MIC,[2]; [31],> 100 µg/mL
same,MIC,[2]; [32],3 µg/mL
same,MIC,Trichophyton quickeaneum,3 µg/mL
same,MIC,Trichophyton rubrum; [33],0.1 µg/mL
same,MIC,Trichophyton rubrum; [34],0.8 µg/mL
same,MIC,Trichophyton rubrum; [35],6 µg/mL
same,MIC,[3],< 0.05 µg/mL
same,MIC,[4],3 µg/mL
same,MIC,Trichophyton tonsurans,1.5 µg/mL
same,MIC,Trichophyton verrucosum; [36],< 0.05 µg/mL
same,MIC,"Trichophyton verrucosum; Trichophyton verrucosum N 3, read-out: MIC values",0.1 µg/mL
same,MIC,Trichophyton violoceum,0.05 µg/mL
"[C-]#[N+]C(=Cc1ccco1)S(=O)(=O)c1ccc(C)cc1 [Example 10, 2-(2-furyl)-1-isocyano-1-(4-toluenesulphonyl)-ethene]",MIC,Bacillus subtilis,6 µg/mL
same,MIC,Candida albicans; [5],0.2 µg/mL
same,MIC,Candida albicans; [6],0.2 µg/mL
same,MIC,Candida albicans; [7],0.4 µg/mL
same,MIC,Candida albicans; [8],0.4 µg/mL
same,MIC,Candida albicans; [9],0.2 µg/mL
same,MIC,Candida albicans; [10],0.2 µg/mL
same,MIC,Candida albicans; [11],0.8 µg/mL
same,MIC,Candida albicans; [12],0.4 µg/mL
same,MIC,Candida albicans; [13],0.4 µg/mL
same,MIC,Candida albicans; [14],0.4 µg/mL
same,MIC,Candida albicans; [15],0.4 µg/mL
same,MIC,Candida albicans; [16],0.4 µg/mL
same,MIC,Candida albicans; [17],0.4 µg/mL
same,MIC,Candida albicans; [18],0.2 µg/mL
same,MIC,Candida albicans; [19],0.4 µg/mL
same,MIC,Candida albicans; [20],0.4 µg/mL
same,MIC,Candida albicans; [21],0.2 µg/mL
same,MIC,Candida albicans; [22],0.4 µg/mL
same,MIC,Candida albicans; [23],0.4 µg/mL
same,MIC,Diplococcus pneumoniae,6 µg/mL
same,MIC,Fusarium (bulb),25 µg/mL
same,MIC,Fusarium (tulip),12.5 µg/mL
same,MIC,Fusarium solani,25 µg/mL
same,MIC,Pasteurella multocida,< 1.5 µg/mL
same,MIC,Proteus morganii,6 µg/mL
same,MIC,Rhizoctonia solani,1.5 µg/mL
same,MIC,Staphylococcus aureus; Staphylococcus aureus A 321,12.5 µg/mL
same,MIC,Staphylococcus aureus; Staphylococcus aureus A 355,12.5 µg/mL
same,MIC,Staphylococcus aureus; Staphylococcus aureus A 2000,12.5 µg/mL
same,MIC,[1],6 µg/mL
same,MIC,Trichophyton equinum; [24],1.5 µg/mL
same,MIC,Trichophyton equinum; [25],< 0.05 µg/mL
same,MIC,Trichophyton equinum; [26],< 0.05 µg/mL
same,MIC,[2]; [27],0.1 µg/mL
same,MIC,[2]; [28],1.5 µg/mL
same,MIC,[2]; [29],3 µg/mL
same,MIC,[2]; [30],1.5 µg/mL
same,MIC,[2]; [31],100 µg/mL
same,MIC,[2]; [32],0.1 µg/mL
same,MIC,Trichophyton quickeaneum,3 µg/mL
same,MIC,Trichophyton rubrum; [33],0.1 µg/mL
same,MIC,Trichophyton rubrum; [34],0.1 µg/mL
same,MIC,Trichophyton rubrum; [35],< 0.05 µg/mL
same,MIC,[3],0.1 µg/mL
same,MIC,[4],6 µg/mL
same,MIC,Trichophyton tonsurans,3 µg/mL
same,MIC,Trichophyton verrucosum; [36],0.2 µg/mL
same,MIC,"Trichophyton verrucosum; Trichophyton verrucosum A 2922, read-out: MIC values",< 0.05 µg/mL
same,MIC,Trichophyton violoceum,0.1 µg/mL
"[C-]#[N+]C(=Cc1ccc(OC)cc1)S(=O)(=O)c1ccc(C)cc1 [Example 23, 1-isocyano-2-(4-methoxyphenyl)-1-(4-toluenesulphonyl)-ethene]",MIC,Bacillus subtilis,3 µg/mL
same,MIC,Candida albicans; [5],1.5 µg/mL
same,MIC,Candida albicans; [6],1.5 µg/mL
same,MIC,Candida albicans; [7],1.5 µg/mL
same,MIC,Candida albicans; [8],1.5 µg/mL
same,MIC,Candida albicans; [9],1.5 µg/mL
same,MIC,Candida albicans; [10],1.5 µg/mL
same,MIC,Candida albicans; [11],1.5 µg/mL
same,MIC,Candida albicans; [12],1.5 µg/mL
same,MIC,Candida albicans; [13],1.5 µg/mL
same,MIC,Candida albicans; [14],1.5 µg/mL
same,MIC,Candida albicans; [15],1.5 µg/mL
same,MIC,Candida albicans; [16],1.5 µg/mL
same,MIC,Candida albicans; [17],1.5 µg/mL
same,MIC,Candida albicans; [18],1.5 µg/mL
same,MIC,Candida albicans; [19],1.5 µg/mL
same,MIC,Candida albicans; [20],1.5 µg/mL
same,MIC,Candida albicans; [21],1.5 µg/mL
same,MIC,Candida albicans; [22],1.5 µg/mL
same,MIC,Candida albicans; [23],1.5 µg/mL
same,MIC,Diplococcus pneumoniae,6 µg/mL
same,MIC,Pasteurella multocida,3 µg/mL
same,MIC,Proteus morganii,6 µg/mL
same,MIC,Staphylococcus aureus; Staphylococcus aureus A 321,3 µg/mL
same,MIC,Staphylococcus aureus; Staphylococcus aureus A 355,3 µg/mL
same,MIC,Staphylococcus aureus; Staphylococcus aureus A 2000,1.5 µg/mL
same,MIC,[1],< 0.05 µg/mL
same,MIC,Trichophyton equinum; [25],1.5 µg/mL
same,MIC,Trichophyton equinum; [26],100 µg/mL
same,MIC,[2]; [27],25 µg/mL
same,MIC,[2]; [28],100 µg/mL
same,MIC,[2]; [29],100 µg/mL
same,MIC,[2]; [30],12.5 µg/mL
same,MIC,[2]; [31],> 100 µg/mL
same,MIC,[2]; [32],25 µg/mL
same,MIC,Trichophyton rubrum; [33],25 µg/mL
same,MIC,Trichophyton rubrum; [34],100 µg/mL
same,MIC,Trichophyton rubrum; [35],25 µg/mL
same,MIC,[3],3 µg/mL
same,MIC,[4],6 µg/mL
same,MIC,Trichophyton tonsurans,0.8 µg/mL
same,MIC,Trichophyton verrucosum; [36],1.5 µg/mL
same,MIC,Trichophyton violoceum,3 µg/mL
